pEC50, pIC50: −log10 of the molar value. Like-named read-outs stand apart in the source and are kept apart here.
Assays:
SARS-CoV-2 replicon = experiment: microbe, parasite or virus in culture; type: cell-based; conditions: Severe acute respiratory syndrome coronavirus 2, Huh-7
[1] = target: SARS-CoV-2 Papain-like (PLpro) protease (Severe acute respiratory syndrome coronavirus 2, UniProt P0DTD1); experiment: SARS-CoV-2 Papain-like (PLpro) protease biochemical enzyme inhibition assay (ubiquitin-fluorophore substrate, Ub-R110); conditions: Ub-R110 substrate; run in duplicate; read-out: PLpro IC50
SARS-CoV-2 USA-WA1/2020 = experiment: microbe, parasite or virus in culture; type: cell-based; conditions: read-out: SARS-CoV-2 BSL3 EC50
[2] = Severe acute respiratory syndrome coronavirus 2, 144 h, Vero 76 cells, SARS-CoV-2 USA-WA1/2020, neutral red, day 6

Row | SMILES | pEC50 (SARS-CoV-2 replicon) | pIC50 [1] | pEC50 (SARS-CoV-2 USA-WA1/2020; [2]) | pEC50 (SARS-CoV-2 USA-WA1/2020; Severe acute respiratory syndrome coronavirus 2, Vero 76, 144 h)
1 | N#CCNC(=O)C(=O)NCc1ccc(-c2ccn(C(F)F)n2)cc1C(=O)NC1(c2ccc(F)c3ccccc23)CC1 [Example 125] | 5.00 to 6.00 | > 7.00 | > 6.00 | 
2 | O=C(C#CCNC(=O)C(=O)NCc1ccccc1C(=O)NC1(c2ccc3ccccc3c2)CC1)NC1CC1 [Example 536] | > 6.00 | > 7.00 | > 6.00 | 
3 | COC(=O)/C=C/CCNC(=O)C(=O)NCc1ccccc1C(=O)NC1(c2cccc3ccccc23)CC1 [Example 3] | > 6.00 | > 7.00 | > 6.00 | 
4 | COC(=O)/C=C/CCNC(=O)C(=O)NCc1ccccc1C(=O)N[C@H](C)c1cccc2ccccc12 [Example 1] | > 6.00 | > 7.00 | > 6.00 | 
5 | O=C(C#CCNC(=O)C(=O)NCc1ccccc1C(=O)NC1(c2cccc3ccccc23)CC1)NC1CC1 [Example 518] | > 6.00 | > 7.00 | > 6.00 | 
6 | N#CCNC(=O)C(=O)NCc1ccccc1C(=O)NC1(c2cc(Cl)cc(-c3cccs3)c2)CC1 [Example 457, N1-(2-((1-(3-chloro-5-(thiophen-2-yl)phenyl)cyclopropyl)carbamoyl)benzyl)-N2-(cyanomethyl)oxalamide] | 5.00 to 6.00 | > 7.00 |  | 5.00 to 6.00
7 | O=C(NCC#CC(=O)N1CC(F)(F)C1)C(=O)NCc1ccccc1C(=O)NC1(c2cccc3ccccc23)CC1 [Example 529] | > 6.00 | > 7.00 | > 6.00 | 
8 | O=C(C#CCNC(=O)C(=O)NCc1ccccc1C(=O)NC1(c2ccc3ccccc3c2)CC1)N[C@]12C[C@](C(F)(F)F)(C1)C2 [Example 537] | > 6.00 | > 7.00 | > 6.00 | 
9 | O=C(NCC#CC(=O)N1CC2CC2C1)C(=O)NCc1ccccc1C(=O)NC1(c2ccc3ccccc3c2)CC1 (centres unmarked) [Example 527] | > 6.00 | > 7.00 | > 6.00 | 
10 | O=C(NCC#CC(=O)N1CC2CC2C1)C(=O)NCc1ccccc1C(=O)NC1(c2cccc3ccccc23)CC1 (centres unmarked) [Example 528] | > 6.00 | > 7.00 | > 6.00 | 
11 | O=C(NCC#CC(=O)N1CC(F)(F)C1)C(=O)NCc1ccccc1C(=O)NC1(c2ccc3ccccc3c2)CC1 [Example 535] | > 6.00 | > 7.00 | 5.00 to 6.00 | 
12 | O=C(C#CCNC(=O)C(=O)NCc1ccccc1C(=O)NC1(c2cccc3ccccc23)CC1)N[C@]12C[C@](C(F)(F)F)(C1)C2 [Example 525] | > 6.00 | > 7.00 | 5.00 to 6.00 | 
13 | C#CCNC(=O)C(=O)NCc1ccc(-c2ccn(C(F)F)n2)cc1C(=O)NC1(c2ccc(F)c3ccccc23)CC1 [Example 126] | > 6.00 | > 7.00 | > 6.00 | 
14 | COC(=O)/C=C/CNC(=O)C(=O)NCc1ccccc1C(=O)N[C@H](C)c1cccc2ccccc12 [Example 2] | > 6.00 | > 7.00 | > 6.00 | 
15 | C#CCNC(=O)C(=O)NCc1ccccc1C(=O)NC1(c2cc(-c3c(C)n[nH]c3C)cc(C(F)(F)F)c2)CC1 [Example 477] | > 6.00 | > 7.00 |  | 
16 | Cn1cc(-c2cc(C3(NC(=O)c4ccccc4CNC(=O)C(=O)NCC#N)CC3)ccc2F)cn1 [Example 231] | < 5.00 | > 7.00 |  | 
17 | COc1cc(C2(NC(=O)c3ccccc3CNC(=O)C(=O)NCC#Cc3ccc(C#N)cc3OC(F)(F)F)CC2)cc2cn(C3CC3)nc12 [Example 215] | > 6.00 | > 7.00 |  | 
18 | N#CCNC(=O)C(=O)NCc1ccccc1C(=O)NC1(c2cccc(-c3ccc(F)cc3)c2Cl)CC1 [Example 380] | < 5.00 | 6.00 to 7.00 |  | 
19 | N#CCNC(=O)C(=O)NCc1ccccc1C(=O)NC1(c2cc(-c3cnn[nH]3)cc3ccccc23)CC1 [Example 425] | > 6.00 | > 7.00 |  | 
20 | C#CCNC(=O)C(=O)NCc1ccccc1C(=O)NC1(c2ccc(OC)c(Br)c2)CC1 [Example 230] | > 6.00 | > 7.00 |  | 
21 | C#CCNC(=O)C(=O)NCc1ccccc1C(=O)NC1(c2ccc3c4c(cccc24)CC3)CC1 [Example 441, N1-(2-((1-(1,2-dihydroacenaphthylen-5-yl)cyclopropyl)carbamoyl)benzyl)-N2-(prop-2-yn-1-yl)oxalamide] | > 6.00 | > 7.00 |  | 

Row | SMILES | pEC50 (SARS-CoV-2 replicon) | pIC50 [1] | pEC50 (SARS-CoV-2 USA-WA1/2020; [2]) | pEC50 (SARS-CoV-2 USA-WA1/2020; Severe acute respiratory syndrome coronavirus 2, Vero 76, 144 h)
22 | CC(C)(C)OC(=O)/C=C/CNC(=O)C(=O)NCc1ccccc1C(=O)NC1(c2cccc3ccccc23)CC1 [Example 571] | 5.00 to 6.00 | 6.00 to 7.00 |  | 
23 | O=C(NCC#Cc1cc(F)ccn1)C(=O)NCc1ccccc1C(=O)NC1(c2ccc3ccccc3c2)CC1 [Example 187] | > 6.00 | > 7.00 |  | 
24 | C#CCNC(=O)C(=O)NCc1ccccc1C(=O)NC1(c2cc(F)cc(Br)c2)CC1 [Example 228] | > 6.00 | > 7.00 |  | 
25 | Cn1cc(-c2cc(F)cc(C3(NC(=O)c4ccccc4CNC(=O)C(=O)NCC#N)CC3)c2)cn1 [Example 235] | < 5.00 | > 7.00 |  | 
26 | C[C@@H](C#Cc1ncccc1Cl)NC(=O)C(=O)NCc1ccccc1C(=O)NC1(c2ccc3nn(C)cc3c2)CC1 [Example 272] | > 6.00 | > 7.00 |  | 
27 | N#CN1CC[C@H](C(=O)NCc2ccccc2C(=O)NC2(c3cc(-c4cnn(C5CC5)c4)cc4ncccc34)CC2)C1 [Example 419] | > 6.00 | > 7.00 |  | 
28 | COc1ccc(-c2cc(C3(NC(=O)c4ccccc4CNC(=O)C(=O)NCC#N)CC3)c3ccccc3c2)s1 [Example 351] | > 6.00 | > 7.00 |  | 
29 | C#CCNC(=O)C(=O)NCc1ccccc1C(=O)NC1(c2cc(Cl)cc(-c3cnco3)c2)CC1 [Example 450] | > 6.00 | > 7.00 |  | 
30 | Cc1cccnc1C#C[C@H](C)NC(=O)C(=O)NCc1ccccc1C(=O)NC1(c2cc(F)cc(-c3cnn(C4CC4)c3)c2)CC1 [Example 266] | > 6.00 | > 7.00 |  | 
31 | COc1ccc2cccc(C3(NC(=O)c4ccccc4CNC(=O)C(=O)NCC#N)CC3)c2c1 [Example 348] | 5.00 to 6.00 | > 7.00 |  | 
32 | CN(C)CCn1cc(-c2cc(F)cc(C3(NC(=O)c4ccccc4CNC(=O)C(=O)NCC#Cc4ccccn4)CC3)c2)cn1 [Example 250] | > 6.00 | > 7.00 |  | 
33 | CC(C)(O)c1ccc(-c2cc(C3(NC(=O)c4ccccc4CNC(=O)C(=O)NCC#N)CC3)c3ccccc3c2)s1 [Example 354] | > 6.00 | > 7.00 |  | 
34 | O=C(NCC#Cc1ccc(C(F)(F)F)cn1)C(=O)NCc1ccccc1C(=O)NC1(c2ccc3ccccc3c2)CC1 [Example 189] | > 6.00 | > 7.00 |  | 
35 | O=C(NCC#Cc1ccc(C(F)(F)F)cc1F)C(=O)NCc1ccccc1C(=O)NC1(c2ccc3ccccc3c2)CC1 [Example 175] | 5.00 to 6.00 | 6.00 to 7.00 |  | 
36 | C#CCNC(=O)C(=O)NCc1ccccc1C(=O)NC1(c2cc(Cl)cc(-c3cn(C)nc3C)c2)CC1 [Example 485] | > 6.00 | > 7.00 |  | 
37 | C#CCNC(=O)C(=O)NCc1ccccc1C(=O)NC1(c2cccc(-c3cnn(C4CC4)c3)c2Cl)CC1 [Example 381] | > 6.00 | > 7.00 |  | 
38 | O=C(NCC#Cc1ccc(F)cn1)C(=O)NCc1ccccc1C(=O)NC1(c2cc(-c3cnn(C4CC4)c3)cc(C3CC3)c2)CC1 [Example 135] | > 6.00 | > 7.00 |  | 
39 | Cc1cc(C)nc(C#CCNC(=O)C(=O)NCc2ccccc2C(=O)NC2(c3ccc4ccccc4c3)CC2)n1 [Example 178] | > 6.00 | > 7.00 |  | 
40 | CN(C)CCn1cc(-c2cc(F)cc(C3(NC(=O)c4ccccc4CNC(=O)C(=O)NCC#Cc4nccs4)CC3)c2)cn1 [Example 251] | > 6.00 | > 7.00 |  | 
41 | O=C(C#CCNC(=O)C(=O)NCc1ccccc1C(=O)NC1(c2cccc3ccccc23)CC1)NC1CC(F)(F)C1 [Example 519] | > 6.00 | > 7.00 |  | 
42 | N#CCNC(=O)C(=O)NCc1ccccc1C(=O)NC1(c2cc(F)cc(-c3cnn(C4CC4)c3)c2)CC1 [Example 222] | < 5.00 | > 7.00 |  | 
